# According to the C3SDB collision cross section collection:
# Columns and labels:
# [1] = instrument: TW, calibrated with polyalanine
# [2] = instrument: DT, single field, calibrated with Agilent tune mix (Agilent)
# [3] = instrument: DT, stepped-field
# [4] = instrument: TW, calibrated with phosphatidylcholines (ESI+) and phosphatidylethanolamines (ESI-), doubly charged cardiolipins calibrated with poly-DL-…
smiles,measurement,setting,value
Cn1cnc(C[C@H](N)C(=O)O)c1 [1-Methylhistidine],collision cross section (N2),[1]; [M+H]+,129 Å²
same,collision cross section (N2),[2]; [M+H]+,133.1 Å²
same,collision cross section (N2),[2]; [M-H]-,139.64 Å²
O=C(O)[C@H](O)COP(=O)(O)O [3-Phosphoglyceric acid],collision cross section (N2),[1]; [M+Na]+,134 Å²
O=C(O)[C@H](O)[C@@H](O)[C@H](O)[C@H](O)COP(=O)(O)O [6-Phosphogluconate],collision cross section (N2),[1]; [M+Na]+,159 Å²
Nc1ncnc2c1ncn2[C@@H]1O[C@H](COP(=O)(O)OP(=O)(O)O)[C@@H](O)[C@H]1O [ADP],collision cross section (N2),[1]; [M+H]+,181 Å²
NC(=O)c1ncn([C@@H]2O[C@H](CO)[C@@H](O)[C@H]2O)c1N [Acadesine],collision cross section (N2),[1]; [M+H]+,152 Å²
CC(=O)O[C@H](CC(=O)[O-])C[N+](C)(C)C [Acetylcarnitine],collision cross section (N2),[1]; [M+H]+,142 Å²
same,collision cross section (N2),[2]; [M+H]+,143 Å²
Nc1ncnc2nc[nH]c12 [Adenine],collision cross section (N2),[3]; [M+H]+,127.9 Å²
same,collision cross section (N2),[1]; [M+H]+,119 Å²
same,collision cross section (N2),[2]; [M+H]+,125.1 Å²
Nc1ncnc2c1ncn2[C@@H]1O[C@H](CO)[C@@H](O)[C@H]1O [Adenosine],collision cross section (N2),[3]; [M+H]+,156.97 Å²
same,collision cross section (N2),[3]; [M+Na]+,170.07 Å²
same,collision cross section (N2),[1]; [M+H]+,151 Å²
same,collision cross section (N2),[2]; [M+H]+,155.7 Å²
NC(=O)C[C@H](N)C(=O)O [Asparagine],collision cross section (N2),[1]; [M+H]+,118 Å²
Nc1ccn([C@@H]2O[C@H](COP(=O)(O)O)[C@@H](O)[C@H]2O)c(=O)n1 [CMP],collision cross section (N2),[1]; [M+H]+,163 Å²
N[C@@H](CS)C(=O)O [Cysteine],collision cross section (N2),[1]; [M+H]+,113 Å²
N[C@@H](CSSC[C@H](N)C(=O)O)C(=O)O [Cystine],collision cross section (N2),[1]; [M+H]+,145 Å²
Nc1ccn([C@@H]2O[C@H](CO)[C@@H](O)[C@H]2O)c(=O)n1 [Cytidine],collision cross section (N2),[1]; [M+H]+,148 Å²
same,collision cross section (N2),[2]; [M+Na]+,159.5 Å²
CN(C)CC(=O)O [Dimethylglycine],collision cross section (N2),[1]; [M+H]+,116 Å²
same,collision cross section (N2),[2]; [M+H]+,119.7 Å²
Nc1nc(=O)c2nc(CNc3ccc(C(=O)N[C@@H](CCC(=O)O)C(=O)O)cc3)cnc2[nH]1 [Folic acid],collision cross section (N2),[1]; [M+Na]+,202 Å²
Nc1nc(=O)c2ncn([C@@H]3O[C@H](COP(=O)(O)OP(=O)(O)OP(=O)(O)O)[C@@H](O)[C@H]3O)c2[nH]1 [GTP],collision cross section (N2),[1]; [M+H]+,196 Å²
N[C@@H](CCC(=O)O)C(=O)O [Glutamic acid],collision cross section (N2),[1]; [M+H]+,123 Å²
NC(=O)CC[C@H](N)C(=O)O [Glutamine],collision cross section (N2),[3]; [M+H]+,133.45 Å²
same,collision cross section (N2),[3]; [M+Na]+,138.11 Å²
same,collision cross section (N2),[1]; [M+H]+,124 Å²
Nc1nc(=O)c2ncn([C@@H]3O[C@H](CO)[C@@H](O)[C@H]3O)c2[nH]1 [Guanosine],collision cross section (N2),[3]; [M+H]+,165.02 Å²
same,collision cross section (N2),[3]; [M+Na]+,177.25 Å²
same,collision cross section (N2),[1]; [M+H]+,160 Å²
same,collision cross section (N2),[2]; [M+Na]+,174.6 Å²
N[C@@H](Cc1cnc[nH]1)C(=O)O [Histidine],collision cross section (N2),[1]; [M+H]+,127 Å²
N[C@@H](CCS)C(=O)O [Homocysteine],collision cross section (N2),[3]; [M+H]+,130.53 Å²
same,collision cross section (N2),[1]; [M+H]+,124 Å²
O=C(O)[C@@H]1C[C@@H](O)CN1 [Hydroxyproline],collision cross section (N2),[1]; [M+H]+,122 Å²
same,collision cross section (N2),[2]; [M+H]+,128.1 Å²
CCCCCCCC/C=C/CCCCCCCC(=O)O[C@H](CO)COP(=O)(O)OCC(O)CO (stereo partly drawn) [LPG(18:1)],collision cross section (N2),[4]; [M-H]-,217.26 Å²
CC(C)C[C@H](N)C(=O)O [Leucine],collision cross section (N2),[1]; [M+H]+,128 Å²
OC[C@H]1OC(O)[C@@H](O)[C@@H](O)[C@@H]1O (stereo partly drawn) [Mannose],collision cross section (N2),[1]; [M+Na]+,138 Å²
C[C@@](O)(CCO)CC(=O)O [Mevalonic acid],collision cross section (N2),[1]; [M+Na]+,128 Å²
NC(=O)c1cccnc1 [Niacinamide],collision cross section (N2),[1]; [M+H]+,118 Å²
CCCCCCCCCCCCCCCC(=O)OCC(COP(=O)(O)O)OC(=O)CCCCCCCC1CC1CCCC (stereo not drawn) [PA(31:1)],collision cross section (N2),[4]; [M-H]-,245.76 Å²
CCCCCC/C=C\CCCCCCCC(=O)OCC(COP(=O)(O)O)OC(=O)CCCCCCC/C=C\CCCCCC (stereo not drawn) [PA(32:2)],collision cross section (N2),[4]; [M-H]-,247.47 Å²
CCCCCCCCCCCCCCCC(=O)OCC(COP(=O)(O)O)OC(=O)CCCCCCCC1CC1CCCCCC (stereo not drawn) [PA(33:1)],collision cross section (N2),[4]; [M-H]-,252.33 Å²
CCCCCCCCCCCCCCCC(=O)OCC(COP(=O)(O)O)OC(=O)CCCCCCCC1CC1CCCCCCCC (stereo not drawn) [PA(35:1)],collision cross section (N2),[4]; [M-H]-,258.7 Å²
CCCCCC/C=C\CCCCCCCC(=O)OCC(COP(=O)(O)O)OC(=O)CCCCCCCC1CC1CCCCCCCC (stereo not drawn) [PA(35:2)],collision cross section (N2),[4]; [M-H]-,256.82 Å²
CCCCCC/C=C\CCCCCCCC(=O)OCC(COP(=O)(O)OCCN)OC(=O)CCCCCCCCCCCCCCC (stereo not drawn) [PE(32:1)],collision cross section (N2),[4]; [M+H]+,268.72 Å²
same,collision cross section (N2),[4]; [M-H]-,256.09 Å²
CCCCCC/C=C\CCCCCCCC(=O)OCC(COP(=O)(O)OCCN)OC(=O)CCCCCCCC1CC1CCCCCC (stereo not drawn) [PE(33:2)],collision cross section (N2),[4]; [M+H]+,268.71 Å²
same,collision cross section (N2),[4]; [M-H]-,257.69 Å²
CCCCCCCC/C=C\CCCCCCCC(=O)OC(COC(=O)CCCCCCCCCCCCCCC)COP(=O)(O)OCCN (stereo not drawn) [PE(34:1)],collision cross section (N2),[4]; [M+H]+,275.45 Å²
same,collision cross section (N2),[4]; [M-H]-,263.99 Å²
CCCCCCCCCCCCCCCC(=O)OCC(COP(=O)(O)OCCN)OC(=O)CCCCCCCC1CC1CCCCCCCC (stereo not drawn) [PE(35:1)],collision cross section (N2),[4]; [M+H]+,279.52 Å²
same,collision cross section (N2),[4]; [M-H]-,267.54 Å²
CCCCCCCCCCCCCCCC(=O)OCC(COP(=O)(O)OCC(O)CO)OC(=O)CCCCCCCC1CC1CCCC (stereo not drawn) [PG(31:1)],collision cross section (N2),[4]; [M+Na]+,273.08 Å²
same,collision cross section (N2),[4]; [M-H]-,259.19 Å²
CCCCCC/C=C\CCCCCCCC(=O)OCC(COP(=O)(O)OCC(O)CO)OC(=O)CCCCCCCC1CC1CCCCCC (stereo not drawn) [PG(33:2)],collision cross section (N2),[4]; [M+Na]+,275.67 Å²
same,collision cross section (N2),[4]; [M-H]-,264.54 Å²
CCCCCCCCCCCCCCCC(=O)OCC(COP(=O)(O)OCC(O)CO)OC(=O)CCCCCCCC1CC1CCCCCCCC (stereo not drawn) [PG(35:1)],collision cross section (N2),[4]; [M+Na]+,287.26 Å²
same,collision cross section (N2),[4]; [M-H]-,273.44 Å²
CCCCCCCC/C=C\CCCCCCCC(=O)OCC(COP(=O)(O)OCC(O)CO)OC(=O)CCCCCCC/C=C\CCCCCCCC (stereo not drawn) [PG(36:2)],collision cross section (N2),[4]; [M+Na]+,283.87 Å²
same,collision cross section (N2),[4]; [M-H]-,275.05 Å²
C=C(OP(=O)(O)O)C(=O)O [Phosphoenolpyruvate],collision cross section (N2),[1]; [M+Na]+,131 Å²
O=C(O)[C@@H]1CCCN1 [Proline],collision cross section (N2),[1]; [M+H]+,118 Å²
C[C@@H](O)[C@H](N)C(=O)O [Threonine],collision cross section (N2),[1]; [M+H]+,122 Å²
Nc1ncnc2c1ncn2[C@H]1C[C@H](O)[C@@H](COP(=O)(O)O)O1 [dAMP],collision cross section (N2),[1]; [M+H]+,164 Å²
Nc1ccn([C@H]2C[C@H](O)[C@@H](COP(=O)(O)O)O2)c(=O)n1 [dCMP],collision cross section (N2),[1]; [M+Na]+,161 Å²
N[C@@H](CCC(=O)N[C@@H](CSSC[C@H](NC(=O)CC[C@H](N)C(=O)O)C(=O)NCC(=O)O)C(=O)NCC(=O)O)C(=O)O [glutathione disulfide],collision cross section (N2),[1]; [M+H]+,227 Å²
CCCCCCCCCCCCCCCC(=O)OC(CC(=O)[O-])C[N+](C)(C)C (stereo not drawn) [palmitoylcarnitine],collision cross section (N2),[1]; [M+H]+,217 Å²
Cc1ncc(C[n+]2csc(CCO)c2C)c(N)n1 [thiamine],collision cross section (N2),[1]; [M]+,159 Å²
